Laboratory results published in PubChem BioAssay (NCI).
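Five concentrations, 48 hours, 96-well plates. GI50 = concentration required for 50% inhibition of growth. Definition used: TGI = concentration required for complete inhibition of growth.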 Where a SMILES comes first, the peptide text is derived from it. [ ]: non-standard residue; d: D form. ξ: configuration not given here. ξThz(5,5-Me2) = CC1(C)SCNC1C(=O)O

Columns and labels:
Assay in all cases: growth of human tumour cells (NCI), 48 h
NCI-H226 lung = test system: NCI-H226 lung
NCI-H23 lung = test system: NCI-H23 lung
UACC-257 melanoma = test system: UACC-257 melanoma
HOP-92 NSCLC = test system: HOP-92 NSCLC
NCI-H460 lung = test system: NCI-H460 lung
U251 CNS = test system: U251 CNS
HL-60(TB) leukemia = test system: HL-60(TB) leukemia
LOX IMVI melanoma = test system: LOX IMVI melanoma
A498 renal = test system: A498 renal
PC-3 prostate = test system: PC-3 prostate
IGROV1 ovarian = test system: IGROV1 ovarian
SN12C renal = test system: SN12C renal
HCT-116 colon = test system: HCT-116 colon
TK-10 renal = test system: TK-10 renal
OVCAR-3 ovarian = test system: OVCAR-3 ovarian
KM12 colon = test system: KM12 colon
HCT-15 colon = test system: HCT-15 colon
OVCAR-4 ovarian = test system: OVCAR-4 ovarian
SNB-75 CNS = test system: SNB-75 CNS
MDA-MB-435 = test system: MDA-MB-435
RPMI-8226 leukemia = test system: RPMI-8226 leukemia
COLO 205 colon = test system: COLO 205 colon
HOP-62 NSCLC = test system: HOP-62 NSCLC
SK-OV-3 ovarian = test system: SK-OV-3 ovarian
EKVX NSCLC = test system: EKVX NSCLC
SW-620 colon = test system: SW-620 colon
SF-539 CNS = test system: SF-539 CNS
NCI-H522 lung = test system: NCI-H522 lung
M14 melanoma = test system: M14 melanoma
MCF7 breast = test system: MCF7 breast
SNB-19 CNS = test system: SNB-19 CNS
MALME-3M melanoma = test system: MALME-3M melanoma
UO-31 renal = test system: UO-31 renal
DU-145 prostate = test system: DU-145 prostate
BT-549 breast = test system: BT-549 breast
HCC-2998 colon = test system: HCC-2998 colon
MDA-MB-231 breast = test system: MDA-MB-231 breast
SK-MEL-5 melanoma = test system: SK-MEL-5 melanoma
OVCAR-8 ovarian = test system: OVCAR-8 ovarian
HT29 colon = test system: HT29 colon
CAKI-1 renal = test system: CAKI-1 renal
NCI/ADR-RES ovarian = test system: NCI/ADR-RES ovarian
SF-295 CNS = test system: SF-295 CNS
SK-MEL-28 melanoma = test system: SK-MEL-28 melanoma
ACHN renal = test system: ACHN renal
A549 NSCLC = test system: A549 NSCLC
T-47D breast = test system: T-47D breast
786-0 renal = test system: 786-0 renal
UACC-62 melanoma = test system: UACC-62 melanoma
SF-268 CNS = test system: SF-268 CNS
OVCAR-5 ovarian = test system: OVCAR-5 ovarian

## CSCC[C@H](NC(=O)[C@H](CC(C)C)NC(=O)[C@H](Cc1c[nH]cn1)NC(=O)CNC(=O)C1N(C(=O)[C@@H](C)NC(=O)[C@H](Cc2c[nH]c3ccccc23)NC(=O)[C@H](CCC(N)=O)NC(=O)[C@@H](N)CC(N)=O)CSC1(C)C)C(N)=O (stereo not given in full) (H-NQW[dA][ξThz(5,5-Me2)]GHLM-NH2)
NCI-H226 lung
  TGI: > 25000 nM
NCI-H23 lung
  TGI: > 25000 nM
UACC-257 melanoma
  TGI: > 25000 nM
HOP-92 NSCLC
  TGI: > 25000 nM

## COc1cc(C=C2c3ccccc3C(=O)c3ccccc32)ccc1OCCCCOc1cc2c(cc1OC)C(=O)N1CCCC1C=N2 (stereo not given)
NCI-H460 lung
  GI50: 703 nM
  TGI: 2350 nM
U251 CNS
  GI50: 249 nM
  TGI: 704 nM
HL-60(TB) leukemia
  GI50: 142 nM
  TGI: 389 nM
LOX IMVI melanoma
  GI50: 279 nM
  TGI: 890 nM
A498 renal
  GI50: 454 nM
  TGI: 1610 nM
PC-3 prostate
  GI50: 274 nM
  TGI: 3560 nM
IGROV1 ovarian
  GI50: 321 nM
  TGI: 804 nM
SN12C renal
  GI50: 458 nM
  TGI: 1880 nM
HCT-116 colon
  GI50: 174 nM
  TGI: 409 nM
TK-10 renal
  GI50: 302 nM
  TGI: 896 nM
OVCAR-3 ovarian
  GI50: 200 nM
  TGI: 458 nM
KM12 colon
  GI50: 227 nM
  TGI: 608 nM
HCT-15 colon
  GI50: 377 nM
  TGI: 1500 nM
OVCAR-4 ovarian
  GI50: 456 nM
  TGI: 8450 nM
NCI-H226 lung
  GI50: 1260 nM
  TGI: 3130 nM
SNB-75 CNS
  GI50: 391 nM
  TGI: 1800 nM
MDA-MB-435
  GI50: 227 nM
  TGI: 601 nM
RPMI-8226 leukemia
  GI50: 101 nM
  TGI: 354 nM
COLO 205 colon
  GI50: 469 nM
  TGI: 1670 nM
HOP-62 NSCLC
  GI50: 579 nM
  TGI: 1310 nM
SK-OV-3 ovarian
  GI50: 1410 nM
  TGI: 3890 nM
EKVX NSCLC
  GI50: 1140 nM
  TGI: 3170 nM
SW-620 colon
  GI50: 214 nM
  TGI: 501 nM
SF-539 CNS
  GI50: 352 nM
  TGI: 1390 nM
NCI-H23 lung
  GI50: 337 nM
  TGI: 1490 nM
NCI-H522 lung
  GI50: 612 nM
  TGI: 9950 nM
M14 melanoma
  GI50: 440 nM
  TGI: 1470 nM
MCF7 breast
  GI50: 304 nM
  TGI: 1640 nM
SNB-19 CNS
  GI50: 1020 nM
  TGI: 2560 nM
MALME-3M melanoma
  GI50: 399 nM
  TGI: 1590 nM
UACC-257 melanoma
  GI50: 1090 nM
  TGI: 2550 nM
UO-31 renal
  GI50: 656 nM
  TGI: 2090 nM
DU-145 prostate
  GI50: 208 nM
  TGI: 479 nM
BT-549 breast
  GI50: 91.5 nM
  TGI: 542 nM
HCC-2998 colon
  GI50: 342 nM
  TGI: 816 nM
MDA-MB-231 breast
  GI50: 603 nM
  TGI: 11800 nM
SK-MEL-5 melanoma
  GI50: 782 nM
  TGI: 2050 nM
OVCAR-8 ovarian
  GI50: 310 nM
  TGI: 1260 nM
HT29 colon
  GI50: 278 nM
  TGI: 1460 nM
CAKI-1 renal
  GI50: 314 nM
  TGI: 1020 nM
NCI/ADR-RES ovarian
  GI50: 1620 nM
  TGI: 8830 nM
SF-295 CNS
  GI50: 765 nM
  TGI: 2340 nM
SK-MEL-28 melanoma
  GI50: 192 nM
  TGI: 430 nM
ACHN renal
  GI50: 525 nM
  TGI: 1690 nM
HOP-92 NSCLC
  GI50: 244 nM
  TGI: 1050 nM
A549 NSCLC
  GI50: 785 nM
  TGI: 3220 nM
T-47D breast
  GI50: 356 nM
  TGI: 1780 nM
786-0 renal
  GI50: 448 nM
  TGI: 1110 nM
UACC-62 melanoma
  GI50: 407 nM
  TGI: 1470 nM
SF-268 CNS
  GI50: 242 nM
  TGI: 726 nM
OVCAR-5 ovarian
  GI50: 581 nM
  TGI: 1450 nM

## COc1cc(OC)cc(-c2ccc(-c3ccc(C(=N)N)cc3)s2)c1
HL-60(TB) leukemia
  GI50: 1900 nM
  TGI: 3740 nM
DU-145 prostate
  GI50: 1770 nM
  TGI: 3240 nM
